From publication PMC12202533, “Mechanistic Insights and Anti-cancer Activity of 2H-benzo[b][1,4]oxazin-3(4H)-one Linked 1,2,3-Triazoles in Human Cancer Cells” (Frontiers in Pharmacology, 2025)
Where two headings read alike, the source gives them in different places.

How the values were obtained:
[1] = CCK-8 cell viability assay, normal cell line; assay type: cell-based; conditions: human, BEAS-2B cells (normal cell line), BEAS-2B normal cell line, read-out: Cell viability (100%), 40 μM, 48 h, BEAS-2B
Description: (§1) In order to investigate the anticancer activity of new synthetic 1,4-benzoxazinone-linked 1,2,3-triazole compounds, we chose several cancer cell lines, including A549 (lung), Huh7 (liver), MCF-7 (breast), HCT-116 (colon), and SKOV3 (ovary), and measured cell viability using the CCK-8 assay. Cells were exposed to 40 μM of the compounds for 48 h, and then cell viability was determined. […] In addition, we used the reference drug gefitinib as a positive control and measured its cell viability on different cell lines. […] We used BEAS-2B cells as a normal cell line to determine the toxic effects of these compounds on normal cells. […] Furthermore, we evaluated the IC50 of these compounds in A549.
(§2) Cells were cultured in DMEM or RPMI 1640 medium containing 10% FBS and 1% penicillin/streptomycin at 37°C and 5% CO2. The CCK-8 assay was performed on several human cancer cell lines, including A549, Huh7, MCF-7, HCT-116, and SKOV3, according to the manufacturer’s instructions. Cells were plated at a density of 5 × 10^3 cells per well in a 96-well plate. After 24 h of incubation, cells were treated with 40 μM compounds for 48 h. Cell viability was assessed by adding 10 μL of CCK-8 reagent, dissolved in the cell culture medium, and incubating for 1 h. Absorbance was measured at 450 nm using a microplate reader. IC50 values were determined using a dose-response curve with six concentrations (0, 10, 20, 40, 80, and 160 μM), and IC50 values were calculated using GraphPad Prism software.

[2] = test system: A549; assay: CCK-8 cell viability assay and IC50 measurement; assay type: cell-based, human; conditions: for viability at 40 µM / IC50 / inhibition at 40 µM: Homo sapiens; for viability at 40 µM / inhibition at 40 µM: A549, 40 μM, 48 h; for viability at 40 µM: CCK-8, read-out: Cell viability (100%), 40 μM, 48 h, A549; for inhibition at 40 µM: read-out: inhibition rate
Description: as §1
(§3) Human cancer cell lines A549, Huh7, MCF-7, HCT-116, and SKOV3 were obtained from ATCC. The cells were cultured in DMEM or RPMI 1640 medium supplemented with 10% FBS and 1% penicillin/streptomycin and incubated at 37°C in a CO2-humidified atmosphere.
as §2

[3] = test system: MCF-7; assay: CCK-8 cell viability assay; assay type: cell-based; conditions: Homo sapiens, MCF7, MCF-7, 40 μM, 48 h, read-out: Cell viability (100%), 40 μM, 48 h, MCF-7
Description: as §1, §3, §2

[4] = test system: Huh7; assay: CCK-8 cell viability assay; assay type: cell-based; conditions: Homo sapiens, Huh-7, Huh7, 40 μM, 48 h, read-out: Cell viability (100%), 40 μM, 48 h, Huh7
Description: as §1, §3, §2

[5] = test system: HCT-116; assay: CCK-8 cell viability assay; assay type: cell-based; conditions: Homo sapiens, HCT-116, 40 μM, 48 h, read-out: Cell viability (100%), 40 μM, 48 h, HCT-116
Description: as §1, §3, §2

[6] = test system: SKOV3; assay: CCK-8 cell viability assay; assay type: cell-based; conditions: Homo sapiens, SK-OV-3, SKOV3, 40 μM, 48 h, read-out: Cell viability (100%), 40 μM, 48 h, SKOV3
Description: as §1, §3, §2

[7] = A549, 48 h, read-out: IC50 48 h
[8] = A549, 72 h, read-out: IC50 72 h

SMILES | viability at 48 h, 40 µM [1] | activity on A549 cells (in words) ([2]; A549, CCK-8) | viability at 40 µM [2] | viability at 40 µM [3] | viability at 40 µM [4] | viability at 40 µM [5] | viability at 40 µM [6] | IC50 [2, 7] | IC50 [2, 8] | inhibition at 40 µM [2]
COc1cc2ncnc(Nc3ccc(F)c(Cl)c3)c2cc1OCCCN1CCOCC1 [Gefitinib, reference compound] | 82.11 ± 0.74% | effective activity on A549 cells | 31.1 ± 0.73% | 63.73 ± 0.62% | 55 ± 0.76% | 75.2 ± 1.66% | 84.25 ± 0.32% | – | – | –
O=C1COc2ccc(NC(=O)c3cccc(-c4cn(Cc5ccc(F)cc5)nn4)c3)cc2N1 [Compound 13i] | 117 ± 2.34% | – | 130 ± 1.04% | 124.6 ± 0.87% | 120 ± 2.62% | 142.6 ± 0.97% | 124.2 ± 1.08% | – | – | –
N#Cc1ccccc1Cn1cc(-c2cccc(C(=O)Nc3ccc4c(c3)NC(=O)CO4)c2)nn1 [Compound 13o] | 109 ± 1.51% | – | 64 ± 6.89% | 103 ± 2.66% | 104 ± 2.7% | 97.9 ± 1.02% | 98.4 ± 2.58% | – | – | –
N#Cc1ccc(F)cc1Cn1cc(-c2cccc(C(=O)Nc3ccc4c(c3)NC(=O)CO4)c2)nn1 [Compound 13d] | 96.6 ± 2.6% | – | 133 ± 1.67% | 137 ± 1.49% | 126 ± 1.71% | 135 ± 3.97% | 120 ± 1.47% | – | – | –
O=C1COc2ccc(NC(=O)c3cccc(-c4cn(Cc5ccccc5Br)nn4)c3)cc2N1 [Compound 13q] | 114.9 ± 0.85% | – | 29.3 ± 1.12% | 97.9 ± 2.13% | 123 ± 1.89% | 77.1 ± 2.31% | 89.5 ± 3.23% | 29.4 ± 3.49 µM | 34.9 ± 5.25 µM | > 50%
O=C1COc2ccc(NC(=O)c3cccc(-c4cn(-c5ccc(Br)cc5F)nn4)c3)cc2N1 [Compound 14f] | 90.98 ± 0.38% | – | 39.6 ± 1.77% | 74.2 ± 1.07% | 71.4 ± 1.66% | 80.62 ± 0.6% | 79.8 ± 2.53% | – | – | > 50%
O=C1COc2ccc(NC(=O)c3cccc(-c4cn(Cc5ccc(F)c(Cl)c5)nn4)c3)cc2N1 [Compound 13f] | 124 ± 3.82% | – | 44.5 ± 3.23% | 85.5 ± 2.2% | 88.4 ± 1.3% | 68 ± 5.4% | 83.7 ± 1.74% | 55.2 ± 1.56 µM | 53.3 ± 6.64 µM | > 50%
O=C1COc2ccc(NC(=O)c3cccc(-c4cn(Cc5ccc(F)cc5Cl)nn4)c3)cc2N1 [Compound 13t] | 103 ± 2.67% | – | 96.6 ± 2.07% | 97.9 ± 2.53% | 101 ± 3.53% | 114 ± 1.76% | 97.2 ± 1.54% | – | – | –
O=C1COc2ccc(NC(=O)c3cccc(-c4cn(Cc5cccc(F)c5)nn4)c3)cc2N1 [Compound 13r] | 96.3 ± 1.01% | – | 70 ± 2.73% | 122 ± 2.48% | 131 ± 2.34% | 74.9 ± 3.73% | 115.2 ± 0.67% | – | – | –
O=C1COc2ccc(NC(=O)c3cccc(-c4cn(Cc5ccc(Br)cc5)nn4)c3)cc2N1 [Compound 13a] | 110 ± 1.16% | – | 105 ± 3.6% | 107 ± 3.39% | 109 ± 2.48% | 115 ± 4.01% | 104 ± 2.08% | – | – | –
O=C1COc2ccc(NC(=O)c3cccc(-c4cn(Cc5ccc(C(F)(F)F)cc5)nn4)c3)cc2N1 [Compound 13p] | 102 ± 4.05% | – | 94.7 ± 6.71% | 113 ± 1.67% | 119 ± 1.7% | 120 ± 2.54% | 104 ± 1.06% | – | – | –
O=C1COc2ccc(NC(=O)c3cccc(-c4cn(Cc5ccc(Br)cc5F)nn4)c3)cc2N1 [Compound 13l] | 101.5 ± 0.49% | – | 57 ± 2.02% | 105 ± 2.42% | 119 ± 2.06% | 110 ± 5.15% | 91.6 ± 2.21% | > 100 µM | 79.2 ± 6.11 µM | –
O=C1COc2ccc(NC(=O)c3cccc(-c4cn(Cc5ccc(I)cc5)nn4)c3)cc2N1 [Compound 13s] | 94.7 ± 1.56% | – | 128.8 ± 1.19% | 127 ± 3.34% | 137 ± 1.61% | 150.6 ± 1.11% | 118 ± 1.64% | – | – | –
O=C1COc2ccc(NC(=O)c3cccc(-c4cn(-c5cc(Cl)ccc5F)nn4)c3)cc2N1 [Compound 14g] | 103 ± 4.98% | – | 28.2 ± 0.55% | 45.5 ± 0.99% | 75.3 ± 1.09% | 74.8 ± 1.72% | 87.6 ± 1.3% | – | – | > 50%
O=C1COc2ccc(NC(=O)c3cccc(-c4cn(Cc5cc(Br)cc(Br)c5)nn4)c3)cc2N1 [Compound 13k] | 112 ± 1.63% | – | 140.65 ± 0.11% | 141 ± 1.94% | 129 ± 2% | 152 ± 3.5% | 135 ± 2.4% | – | – | –
O=C1COc2ccc(NC(=O)c3cccc(-c4cn(Cc5cc(Cl)ccc5F)nn4)c3)cc2N1 [Compound 13h] | 125 ± 1.84% | – | 44.1 ± 2.78% | 94.2 ± 2.87% | 105 ± 2.37% | 80.4 ± 3% | 89.7 ± 5.2% | 51.1 ± 2.54 µM | 49 ± 4.27 µM | > 50%
O=C1COc2ccc(NC(=O)c3cccc(-c4cn(Cc5cc(F)c(F)c(F)c5)nn4)c3)cc2N1 [Compound 13c] | 101 ± 1.59% | – | 63 ± 1% | 91.4 ± 2.78% | 110 ± 1.2% | 68.2 ± 3.35% | 88.5 ± 1.16% | > 100 µM | 64 ± 6.77 µM | –
O=C1COc2ccc(NC(=O)c3cccc(-c4cn(-c5ccc(C(F)(F)F)cc5)nn4)c3)cc2N1 [Compound 14a] | 111.6 ± 0.81% | – | 88.4 ± 7.15% | 101 ± 3.09% | 114 ± 1.46% | 110 ± 5.19% | 103 ± 2.87% | – | – | –
O=C1COc2ccc(NC(=O)c3cccc(-c4cn(-c5cccc(Cl)c5)nn4)c3)cc2N1 [Compound 14d] | 118 ± 2.43% | – | 29.01 ± 0.13% | 120 ± 2.54% | 141.3 ± 1.17% | 134 ± 3.97% | 90.5 ± 3.81% | 38.7 ± 14.9 µM | 34.8 ± 1.96 µM | > 50%
O=C1COc2ccc(NC(=O)c3cccc(-c4cn(Cc5cccc(Cl)c5)nn4)c3)cc2N1 [Compound 13g] | 103.1 ± 0.72% | – | 99.5 ± 3% | 104.5 ± 0.28% | 104 ± 3.8% | 89.8 ± 1.75% | 109 ± 2.06% | – | – | –
O=C1COc2ccc(NC(=O)c3cccc(-c4cn(Cc5cccc(C(F)(F)F)c5)nn4)c3)cc2N1 [Compound 13m] | 107.9 ± 0.77% | – | 126 ± 1.9% | 127 ± 1.71% | 124 ± 3.41% | 144 ± 2.31% | 126 ± 2.44% | – | – | –
O=C1COc2ccc(NC(=O)c3cccc(-c4cn(Cc5ccccc5F)nn4)c3)cc2N1 [Compound 13j] | 125.8 ± 0.46% | – | 53.6 ± 2.43% | 107 ± 2.73% | 97.2 ± 2.59% | 60.3 ± 1.3% | 92.73 ± 0.81% | 43.5 ± 5.67 µM | 35.3 ± 5.81 µM | –
